The values below come from PubChem BioAssay (NCI).

What all share (test): NCI tumour cell line growth inhibition, 48 h
For assay [1], the system named is SK-MEL-5 melanoma.
The test system of assay [2] is UO-31 renal.
The subject of assay [3] is RPMI-8226 leukemia.
The subject of assay [4] is SN12C renal.
Assay [5] has as its system HCT-116 colon.
In assay [6] the test system is DU-145 prostate.
For assay [7], the system named is BT-549 breast.
In assay [8] the test system is SK-MEL-2 melanoma.
Assay [9] deals with SNB-75 CNS.
Assay [10] relates to U251 CNS.
For assay [11], the system named is SK-MEL-28 melanoma.

“And” between values parts separate entries of the source, which are not always exact repeats. Identical values can stand only once.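 1) Cells in 96-well plates. 2) Compound, 48 h, 5 concentrations. 3) Linear interpolation between surrounding doses. 4) Unreached endpoint = highest concentration. GI50 = concentration required for 50% inhibition of growth. TGI is the concentration that stops growth completely.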 Where a SMILES comes first, the peptide text is derived from it. The star is where a group is joined. Boc = CC(C)(C)OC(=O)*

Regarding `O=C(NNC(=O)c1csc(NC(=S)NC2CCCCC2)n1)c1ccccc1`, the TGI came out at 19.7 µM in [1]; 28.3 µM in assay [2]; 69.9 µM in [3]; 22.5 µM in [4]; 15.9 µM in [5]; 51.3 µM in [6]. Also, the TGI is 46.5 µM in assay [7], 45 µM in [8], over 100 µM in assay [9] and 20.4 µM in [10].
Regarding `CC(=O)N(C(C)=O)c1cc2c3c(c1)CCCN3CCC2`, the TGI in [1], in [3], in assay [4], in assay [5], in [6] and in [7] was over 10 µM each time. The TGI in [8], in assay [9], in [11] and in assay [10] was over 10 µM throughout.
As for `COc1ccc2nc3cccc([N+](=O)[O-])c3c(NCCCO)c2c1`, the TGI was 0.00431 µM in [1]; 0.00749 µM and 0.0237 µM in [2]; 0.219 µM in [3]; 0.0193 µM in assay [4]; 1.01 µM in assay [5]; 15.6 µM in assay [6]. Also, the TGI in [7] was 0.0146 µM and 0.0929 µM; in assay [8], 0.00376 µM; in [9], 0.0482 µM and 0.263 µM; in [10], 0.108 µM and 0.16 µM. Also, the GI50 was 0.0017 µM in assay [2]; 0.00174 µM in assay [4]; 0.00162 µM in assay [8]; 0.0151 µM and 0.0535 µM in [9].
In the case of `COC(=O)[C@H](Cc1ccc(O)cc1)NC(=O)[C@H](Cc1ccc(O)cc1)NC(=O)OC(C)(C)C` (Boc-Tyr-Tyr-OMe), the TGI in [1], in [2], in [5], in [6], in assay [7] and in assay [9] was over 100 µM throughout.
Consider `COc1cc(OC)c2[nH]c3c(O)c(-c4c(C)cc5c([nH]c6c(OC)cc(OC)cc65)c4O)c(C)cc3c2c1`, for which the GI50 was 8.38 µM in assay [1], 6.83 µM in assay [2] and 10.5 µM in assay [3]. For the same compound, the TGI in [1] came out at 15.2 µM; in assay [2], 13.3 µM; in assay [3], 23.7 µM; in assay [5], 15.7 µM; in assay [6], 15 µM; in assay [7] it was 16.1 µM. In addition, the TGI in assay [8] was found to be 17.4 µM; in [9] it was 15.5 µM; in assay [11], 19.5 µM; in assay [10], 50 µM.
`Cn1c(N)nc(-c2ccc(Cl)cc2)c1SSc1c(-c2ccc(Cl)cc2)nc(N)n1C`: the TGI was determined as 3.2 µM in assay [1]; 3.24 µM in assay [2]; 3.3 µM in [3]; 13.4 µM in assay [5]; 25.4 µM in assay [6]; 5.19 µM in assay [7]. Further, the TGI was found to be 32.1 µM in assay [8], 20.8 µM in assay [9], 3.76 µM in assay [11] and 4.19 µM in assay [10].
As for `c1ccc2c(c1)OC(N1CCCC1)c1cnc(N3CCOCC3)nc1-2` (configuration not stated), the TGI is 47.2 µM in assay [2]; 74.7 µM in assay [3]; over 100 µM in assay [4]; over 100 µM in assay [5]; over 100 µM in assay [6]; 72.8 µM in assay [7]. For the same compound, the TGI in assay [9] is 54.4 µM; in [11], over 100 µM; in [10], over 100 µM.
For the compound `O=C(N/N=C(/COc1ccccc1)N=Cc1cccnc1)c1ccncc1`, the TGI in assay [3], in assay [4], in assay [5], in assay [6], in assay [7] and in [8] was over 100 µM in each case. Besides, the TGI in assay [9], in [11] and in assay [10] was over 100 µM each time.
Take `CCOC(=O)/C=C(/C)Nc1nc2c(c(C(=O)OC)c1C#N)CCCC2`: the TGI in [1], in [2], in assay [3], in assay [4], in [5] and in [6] was over 100 µM throughout. Further, the TGI in assay [7], in assay [8], in assay [11] and in assay [10] was over 100 µM in each case.
For `Cn1cc(-c2csc(-c3cn(C)c4ccccc34)n2)c2ccccc21`, the TGI in [1] was over 100 µM; in assay [2] it was over 100 µM; in assay [3], 85 µM; in assay [4] it was over 100 µM; in assay [5] it was over 100 µM; in assay [6], over 100 µM. Moreover, the TGI in [7], in [8], in assay [11] and in assay [10] was over 100 µM in each case.
As to `Cc1ccc(N/C(SCc2ccccc2)=C(\C(Cl)=C(Cl)Cl)[N+](=O)[O-])c(C)c1`, the TGI is 63.5 µM in assay [2]; over 100 µM in [3]; 43.8 µM in [4]; 37 µM in assay [5]; over 100 µM in assay [6]; 36.5 µM in assay [7]. Moreover, the TGI in assay [8] is over 100 µM; in assay [9] it was 85.9 µM; in [11], 71.6 µM; in assay [10], 29.3 µM.
Take `O=C(c1cc2c(c3ccccc13)NC1(CCCCC1)N=C2C(F)(F)F)C(F)(F)F`: the TGI came to 18.2 µM in assay [1]; 11.8 µM in assay [2]; 13.2 µM in assay [4]; 12.6 µM in [5]; 19.6 µM in assay [6]; 15.8 µM in assay [7]. The TGI in assay [8] stood at 5.87 µM; in [9] it was 19.1 µM; in assay [11], 22.6 µM; in [10], 13.9 µM.
Consider `CC(=O)CC1=C(OC(C)C)C2(OCCO2)C1O` (configuration not stated), for which the TGI in assay [1], in assay [2], in assay [4], in assay [5], in [6] and in assay [7] was over 100 µM each time. Moreover, the TGI in assay [8], in [9], in assay [11] and in assay [10] was over 100 µM each time.
In the case of `O=c1oc2cc(O)ccc2c(O)c1Cc1c(O)c2ccc(O)cc2oc1=O`, the TGI in assay [1], in assay [2], in assay [4], in assay [5], in assay [6] and in assay [7] was over 100 µM in each case. Besides, the TGI in assay [8], in assay [9], in assay [11] and in assay [10] was over 100 µM each time.
For `CC1=C(C)SC(=C2Sc3nc(O)[nH]c(=O)c3S2)S1`, the TGI in assay [1], in assay [2], in assay [3], in [4], in assay [5] and in assay [6] was over 100 µM each time. In addition, the TGI in [7], in assay [9], in assay [11] and in [10] was over 100 µM in each case.
Take `Cc1cccc(N/C(Sc2ccccc2)=C(/C(Cl)=C(Cl)Cl)[N+](=O)[O-])c1`: the TGI in assay [2] is 29.9 µM; in [3], over 100 µM; in assay [4], 35.1 µM; in [5] it was 28.7 µM; in assay [6], 62.2 µM; in assay [7], 41.8 µM. Besides, the TGI was over 100 µM in assay [8], 68 µM in assay [9], 32.4 µM in [11] and 31.9 µM in assay [10].
`c1ccc([I+]c2ccccc2)cc1`: the TGI in assay [1], in assay [2], in assay [3], in assay [4], in assay [5] and in [6] was over 100 µM each time. The TGI in [7], in assay [8], in [11] and in assay [10] was over 100 µM each time.
Turning to `CN(Cc1cnc2c(N)nc(N)nc2n1)c1ccc(Cl)cc1`, the TGI in assay [1], in assay [2], in assay [3], in assay [4], in assay [6] and in assay [7] was over 100 µM in each case. Besides, the TGI is over 100 µM in [8], 29.6 µM in assay [9] and over 100 µM in assay [10].
For `CC(=O)OC(C)(C)CCC(=O)[C@](C)(O)[C@H]1[C@H](O)C[C@@]2(C)[C@@H]3CCc4c(cc(OC5OC(CO)C(O)C(O)C5O)c(O)c4C)C3(C)C(=O)C[C@]12C` (some centres not stated), the TGI in assay [1], in assay [2], in assay [4], in [5], in assay [6] and in [7] was over 100 µM throughout. For the same compound, the TGI in [8], in assay [9], in assay [11] and in assay [10] was over 100 µM in each case.
Take `CC(=O)Oc1ccc2c3c1O[C@H]1[C@H](O)CC[C@@]4(O)[C@@H](C2)N(C)CC[C@]314`: the TGI in assay [1], in assay [2], in assay [3], in assay [4], in assay [5] and in [6] was over 100 µM throughout. Besides, the TGI in assay [7], in assay [8], in assay [11] and in [10] was over 100 µM in each case.
For `O=CN1CCN(C(=O)c2ccc(Cl)c(Cl)c2)C1=S`, the TGI in assay [3] is 7.74 µM; in [4], 27.8 µM; in assay [5], 30.1 µM; in assay [6], 30.9 µM; in assay [7], 33.7 µM; in [8] it was 30.6 µM. For the same compound, the figures for the TGI in assay [9], in assay [11] and in assay [10] were 32.3 µM, 38.3 µM and 28 µM, respectively.
Regarding `O=[N+]([O-])c1ccc(NNN=Nc2ccc(-c3nc4ccccc4s3)cc2)c([N+](=O)[O-])c1`, the TGI in assay [1] was 29.3 µM; in assay [2], 51.3 µM; in assay [4], 50.8 µM; in assay [5], 33.8 µM; in assay [6], over 100 µM; in assay [7], 58.7 µM. Besides, the TGI was 41.8 µM in [8], 82.1 µM in assay [9], over 100 µM in assay [11] and 76.3 µM in assay [10].
As for `CNc1nc(C(N)=O)c(N)s1`, the TGI in assay [1], in assay [2], in assay [3], in [4], in assay [5] and in assay [6] was over 100 µM throughout. For the same compound, the TGI in assay [7], in assay [8], in [11] and in [10] was over 100 µM throughout.
As to `CC1C(C#N)(C#N)C(C#N)=C(N)C1(Cl)[N+](=O)[O-]` (configuration not stated), the TGI in [1] was found to be 25.4 µM; in [2], 29.4 µM; in [3], 39.8 µM; in assay [4], 20.9 µM; in [5], 20.3 µM; in assay [6], 30.6 µM. In addition, the TGI in assay [7] amounted to 26.3 µM; in [8], 58 µM; in assay [9] it was 24.7 µM; in assay [10], 34.4 µM.
Take `CC1=C(C(=O)N[C@@H](CC(C)C)C(=O)O)N2C(=O)[C@@H](NC(=O)C(N)c3ccccc3)[C@H]2SC1` (some centres not stated): the TGI in [1], in assay [3], in assay [4], in assay [6], in assay [7] and in assay [8] was over 100 µM throughout. The TGI in assay [9], in assay [11] and in assay [10] was over 100 µM each time.
Consider `OC1CSc2nc3ccccc3n2C1` (configuration not stated), for which the TGI in assay [1], in [2], in [3], in assay [4], in assay [5] and in assay [6] was over 100 µM throughout. In addition, the TGI in assay [7] was over 100 µM; in assay [9], 44.8 µM; in assay [10], over 100 µM.
